Data reported in patent publication US20130171098A1, “Cyclopropyl Fused Indolobenzazepine HCV NS5B Inhibitors” (priority 2006, published 2013).
Like-named read-outs stand apart in the source and are kept apart here.

Legend:
[1] = biological target: T1, HCV NS5B RdRp genotype 1b (Hepatitis C virus genotype 1b, UniProt Q9WMX2); test: HCV NS5B RdRp enzyme assay (standard / modified); type: biochemical
T1 construct: The protein was expressed with an 18 amino acid C-terminal truncation to enhance the solubility; made in house; host or cells: E. coli BL21(DE3), pET21a vector
T1 sequence (Q9WMX2 2420-2992): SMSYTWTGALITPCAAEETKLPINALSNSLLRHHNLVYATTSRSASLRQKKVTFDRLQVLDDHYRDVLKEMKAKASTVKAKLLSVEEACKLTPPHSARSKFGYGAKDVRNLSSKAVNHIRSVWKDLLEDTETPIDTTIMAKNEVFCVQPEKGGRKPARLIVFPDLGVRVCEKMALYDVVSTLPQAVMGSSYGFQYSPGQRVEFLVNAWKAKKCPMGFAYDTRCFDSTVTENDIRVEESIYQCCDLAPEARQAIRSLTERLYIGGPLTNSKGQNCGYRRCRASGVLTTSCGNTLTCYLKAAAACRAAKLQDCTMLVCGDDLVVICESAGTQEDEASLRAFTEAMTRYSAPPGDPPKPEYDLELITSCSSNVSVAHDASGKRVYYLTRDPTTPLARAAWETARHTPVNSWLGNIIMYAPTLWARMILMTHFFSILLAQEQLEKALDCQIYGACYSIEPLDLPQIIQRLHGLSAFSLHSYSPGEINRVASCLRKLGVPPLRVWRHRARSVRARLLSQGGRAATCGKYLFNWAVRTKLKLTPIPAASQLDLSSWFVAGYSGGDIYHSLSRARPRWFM
Procedure: HCV NS5B RdRp Cloning, Expression, and Purification.
The cDNA encoding the NS5B protein of HCV, genotype 1b, was cloned into the pET21a expression vector. The protein was expressed with an 18 amino acid C-terminal truncation to enhance the solubility. The E. coli competent cell line BL21(DE3) was used for expression of the protein. Cultures were grown at 37° C. for ˜4 hours until the cultures reached an optical density of 2.0 at 600 nm. The cultures were cooled to 20° C. and induced with 1 mM IPTG. Fresh ampicillin was added to a final concentration of 50 μg/ml and the cells were grown overnight at 20° C.
The lysis buffer consisted of 20 mM Tris-HCl, pH 7.4, 500 mM NaCl, 0.5% triton X-100, 1 mM DTT, 1 mM EDTA, 20% glycerol, 0.5 mg/ml lysozyme, 10 mM MgCl2, 15 ug/ml deoxyribonuclease I, and Complete TM protease inhibitor tablets (Roche). After addition of the lysis buffer, frozen cell pellets were resuspended using a tissue homogenizer. To reduce the viscosity of the sample, aliquots of the lysate were sonicated on ice using a microtip attached to a Branson sonicator. The sonicated lysate was centrifuged at 100,000×g for 1 hr at 4° C. and filtered through a 0.2 μm filter unit (Corning).
The protein was purified using two sequential chromatography steps: Heparin sepharose CL-6B and polyU sepharose 4B (Pharmacia). The chromatography buffers were identical to the lysis buffer but contained no lysozyme, deoxyribonuclease I, MgCl2 or protease inhibitor and the NaCl concentration of the buffer was adjusted according to the requirements for charging the protein onto the column. Each column was eluted with a NaCl gradient which varied in length from 5-50 column volumes depending on the column type. […] The enzyme was aliquoted and stored at −80° C.
Standard HCV NS5B RdRp Enzyme Assay.
HCV RdRp genotype 1b assays were run in a final volume of 60 μl in 96 well plates (Corning 3600). The assay buffer is composed of 20 mM Hepes, pH 7.5, 2.5 mM KCl, 2.5 mM MgCl2, 1 mM DTT, 1.6 U RNAse inhibitor (Promega N2515), 0.01 mg/ml BSA (Sigma B6917), and 2% glycerol. All compounds were serially diluted (3-fold) in DMSO and diluted further in water such that the final concentration of DMSO in the assay was 2%. HCV RdRp genotype 1b enzyme was used at a final concentration of 28 nM. A polyA template was used at 6 nM, and a biotinylated oligo-dT12 primer was used at 180 nM final concentration. Template was obtained commercially (Amersham 27-4110). Biotinylated primer was prepared by Sigma Genosys. 3H-UTP was used at 0.6 μCi (0.29 μM total UTP). Reactions were initiated by the addition of enzyme, incubated at 30° C. for 60 min, and stopped by adding 25 μl of 50 mM EDTA containing SPA beads (4 μg/μl, Amersham RPNQ 0007). Plates were read on a Packard Top Count NXT after >1 hr incubation at room temperature.
Modified HCV NS5B RdRp Enzyme Assay.
A modified enzyme assay was performed essentially as described for the standard enzyme assay except for the following: The biotinylated oligo dT12 primer was precaptured on streptavidin-coated SPA beads by mixing primer and beads in assay buffer and incubating at room temperature for one hour. Unbound primer was removed after centrifugation. The primer-bound beads were resuspended in 20 mM Hepes buffer, pH 7.5 and used in the assay at final concentrations of 20 nM primer and 0.67 μg/μl beads. Order of addition in the assay: enzyme (1.75 nM) was added to diluted compound followed by the addition of a mixture of template (0.36 nM), 3H-UTP (0.6 μCi, 0.29 μM), and primer-bound beads, to initiate the reaction; concentrations given are final. Reactions were allowed to proceed for 4 hours at 30° C.
IC50 values for compounds were determined using seven different [I].

[2] = test system: HCV replicon cells; test: HCV replicon FRET / luciferase assay; type: cell-based, Hepatitis C virus
Procedure: The HCV FRET screening assay was performed in 96-well cell culture plates. The FRET peptide (Anaspec, Inc.) (Taliani et al., Anal. Biochem. 1996, 240, 60-67) contains a fluorescence donor, EDANS, near one end of the peptide and an acceptor, DABCYL, near the other end. The fluorescence of the peptide is quenched by […] resonance energy transfer (RET) between the donor and the acceptor, but as the NS3 protease cleaves the peptide the products are released from RET quenching and the fluorescence of the donor becomes apparent. The assay reagent was made as follows: 5× cell Luciferase cell culture lysis reagent from Promega (#E153A) diluted to 1× with dH2O, NaCl added to 150 mM final, the FRET peptide diluted to 20 μM final from a 2 mM stock.
To prepare plates, HCV replicon cells, with or without a Renilla luciferase reporter gene, were trypsinized and plated in a 96-well plate with titrated test compounds added in columns 3 through 12; columns 1 and 2 contained a control compound (HCV control inhibitor), and the bottom row contained cells with DMSO only. The plates were then placed in a CO2 incubator at 37° C.
Subsequent to addition of the test compounds described above (FRET Assay Preparation), at various times the plate was removed and Alamar blue solution (Trek Diagnostics, #00-100) was added to measure cellular toxicity. After reading in a Cytoflour 4000 instrument (PE Biosystems), plates were rinsed with PBS and then used for FRET assay by the addition of 30 ul of the FRET peptide assay reagent described above (FRET Assay Preparation) per well. The plate was then placed into the Cytoflour 4000 instrument which had been set to 340 excite/490 emission, automatic mode for up to 20 cycles and the plate read in a kinetic mode. Typically, the signal to noise using an endpoint analysis after the reads was at least three-fold. Alternatively, after Alamar blue reading, plates were rinsed with PBS, then used for luciferase assay using the Promega Dual-Glo Luciferase Assay System or the Promega EnduRen Live Cell Substrate assay.
Compound analysis was performed by quantification of the relative HCV replicon inhibition and the relative cytotoxicity values. To calculate cytoxicity values, the average Alamar Blue fluorescence signals from the control wells were set as 100% non-toxic. The individual signals in each of the compound test wells were then divided by the average control signal and multiplied by 100% to determine […]. To calculate the HCV replicon inhibition values, an average background value was obtained from the two wells containing the highest amount of HCV control inhibitor at the end of the assay period. These numbers were similar to those obtained from naïve Huh-7 cells. The background numbers were then subtracted from the average signal obtained from the control wells and this number was used as 100% activity. The individual signals in each of the compound test wells were then divided by the averaged control values after background subtraction and multiplied by 100% to determine percent activity. […] The two numbers generated for the compound plate, percent cytoxicity and percent activity, were used to determine compounds of interest for further analysis.

[3] = HCV NS5B RdRp genotype 1b enzyme
[4] = HCV replicon cells, FRET or luciferase activity

Structure (SMILES)	IC50 [1] [nM]	EC50 ([2]; Hepatitis C virus) [nM]	IC50 [1, 3] [nM]	EC50 [2, 4] [nM]	other results
COc1ccc2c(c1)C1CC1(C(=O)N1C3CCC1CN(C)C3)Cn1c-2c(C2CCCCC2)c2ccc(C(=O)NS(N)(=O)=O)cc21 (stereo not shown) [drawing 38]	1 to 500	1 to 500			
COc1ccc2c(c1)C1CC1(C(=O)NC1CC3CCC(C1)N3C)Cn1c-2c(C2CCCCC2)c2ccc(C(=O)NS(=O)(=O)N(C)C)cc21 (stereo not shown) [drawing 39]	1 to 500	1 to 500			
COc1ccc2c(c1)C1CC1(C(=O)N1C3CCC1CN(CC1CC1)C3)Cn1c-2c(C2CCCCC2)c2ccc(C(=O)NS(=O)(=O)N(C)C)cc21 (stereo not shown) [drawing 40]	1 to 500	1 to 500			
COc1ccc2c(c1)C1CC1(C(=O)N1C3CCC1CN(c1ccccn1)C3)Cn1c-2c(C2CCCCC2)c2ccc(C(=O)NS(=O)(=O)N(C)C)cc21 (stereo not shown) [drawing 41]	1 to 500	1 to 500			
COc1ccc2c(c1)C1CC1(C(=O)N1C3CCC1CN(C)C3)Cn1c-2c(C2CCCCC2)c2ccc(C(=O)NS(=O)(=O)NC3CC3)cc21 (stereo not shown) [drawing 42]	1 to 500	1 to 500			
CN1CC2CCC(C1)N2C(=O)C12CC1c1cc(OCc3ccccc3)ccc1-c1c(C3CCCCC3)c3ccc(C(=O)NS(=O)(=O)N(C)C)cc3n1C2 (stereo not shown) [drawing 43]	1 to 500	1 to 500			
CN1CC2CCC(C1)N2C(=O)C12CC1c1cc(O)ccc1-c1c(C3CCCCC3)c3ccc(C(=O)NS(=O)(=O)N(C)C)cc3n1C2 (stereo not shown) [drawing 44]	1 to 500	1 to 500			
COc1ccc2c(c1)C1CC1(C(=O)N1C3CCC1CN(C)C3)Cn1c-2c(C2CCCCC2)c2ccc(C(=O)NS(=O)(=O)N(C)C)cc21 (stereo not shown) [drawing 46]					IC50 ([1]; HCV NS5B RdRp genotype 1b enzyme, read-out: IC50): 1 to 500 nM; EC50 ([2]; Hepatitis C virus, HCV replicon cells, FRET or luciferase activity, read-out: EC50): 1 to 500 nM
CNS(=O)(=O)NC(=O)c1ccc2c(C3CCCCC3)c3n(c2c1)CC1(C(=O)N2C4CCC2CN(C)C4)CC1c1cc(OC)ccc1-3 (stereo not shown) [drawing 47]			1 to 500	1 to 500	
CNS(=O)(=O)NC(=O)c1ccc2c(C3CCCCC3)c3n(c2c1)CC1(C(=O)N2C4CCC2CN(C)C4)CC1c1cc(OC)ccc1-3 (stereo not shown) [drawing 48]			1 to 500	1 to 500	
CNS(=O)(=O)NC(=O)c1ccc2c(C3CCCCC3)c3n(c2c1)CC1(C(=O)N2C4CCC2CN(C)C4)CC1c1cc(OC)ccc1-3 (stereo not shown) [drawing 50]			1 to 500	1 to 500	
COc1ccc2c(c1)C1CC1(C(=O)N1C3CCC1CN(C)C3)Cn1c-2c(C2CCCCC2)c2ccc(C(=O)NS(=O)(=O)N3CCC3)cc21 (stereo not shown) [drawing 51]			1 to 500	1 to 500	
COc1ccc2c(c1)C1CC1(C(=O)N1C3CCC1CN(C)C3)Cn1c-2c(C2CCCCC2)c2ccc(C(=O)NS(=O)(=O)N3CCOCC3)cc21 (stereo not shown) [drawing 53]			1 to 500	1 to 500	
COc1ccc2c(c1)C1CC1(C(=O)N1C3CCC1CN(C)C3)Cn1c-2c(C2CCCCC2)c2ccc(C(=O)NS(=O)(=O)N3CCN(C)CC3)cc21 (stereo not shown) [drawing 54]			1 to 500	1 to 500	
CNS(=O)(=O)NC(=O)c1ccc2c(C3CCCCC3)c3n(c2c1)CC1(C(=O)N2[C@@H]4CC[C@H]2CN(C)C4)CC1c1cc(OC)ccc1-3 (stereo partly shown) [drawing 55]	1 to 500	1 to 500			
CNS(=O)(=O)NC(=O)c1ccc2c(C3CCCCC3)c3n(c2c1)CC1(C(=O)N2[C@@H]4CC[C@H]2CN(C)C4)CC1c1cc(OC)ccc1-3 (stereo partly shown) [drawing 56]			1 to 500	1 to 500	
COc1ccc2c(c1)C1CC1(C(=O)N1C3CCC1CN(Cc1ccccc1)C3)Cn1c-2c(C2CCCCC2)c2ccc(C(=O)NS(=O)(=O)N(C)C)cc21 (stereo not shown) [drawing 58]			1 to 500	1 to 500	
COc1ccc2c(c1)C1CC1(C(=O)N1C3CCC1CNC3)Cn1c-2c(C2CCCCC2)c2ccc(C(=O)NS(=O)(=O)N(C)C)cc21 (stereo not shown) [drawing 59]			1 to 500	1 to 500	
COc1ccc2c(c1)C1CC1(C(=O)N1C3CCC1CN(C(C)=O)C3)Cn1c-2c(C2CCCCC2)c2ccc(C(=O)NS(=O)(=O)N(C)C)cc21 (stereo not shown) [drawing 60]			1 to 500	1 to 500	
CCN1CC2CCC(C1)N2C(=O)C12CC1c1cc(OC)ccc1-c1c(C3CCCCC3)c3ccc(C(=O)NS(=O)(=O)N(C)C)cc3n1C2 (stereo not shown) [drawing 61]			1 to 500	1 to 500	
COc1ccc2c(c1)C1CC1(C(=O)N1C3CCC1CN(C(C)C)C3)Cn1c-2c(C2CCCCC2)c2ccc(C(=O)NS(=O)(=O)N(C)C)cc21 (stereo not shown) [drawing 62]			1 to 500	1 to 500	
COc1ccc2c(c1)C1CC1(C(=O)N1C3CCC1CN(C)C3)Cn1c-2c(C2CCCCC2)c2ccc(C(=O)NS(N)(=O)=O)cc21 (stereo not shown) [drawing 63]			1 to 500	1 to 500	
COc1ccc2c(c1)C1CC1(C(=O)NC1CC3CCC(C1)N3C)Cn1c-2c(C2CCCCC2)c2ccc(C(=O)NS(=O)(=O)N(C)C)cc21 (stereo not shown) [drawing 64]			1 to 500	1 to 500	
COc1ccc2c(c1)C1CC1(C(=O)N1C3CCC1CN(CC1CC1)C3)Cn1c-2c(C2CCCCC2)c2ccc(C(=O)NS(=O)(=O)N(C)C)cc21 (stereo not shown) [drawing 65]			1 to 500	1 to 500	
COc1ccc2c(c1)C1CC1(C(=O)N1C3CCC1CN(c1ccccn1)C3)Cn1c-2c(C2CCCCC2)c2ccc(C(=O)NS(=O)(=O)N(C)C)cc21 (stereo not shown) [drawing 67]			1 to 500	1 to 500	
COc1ccc2c(c1)C1CC1(C(=O)N1C3CCC1CN(C)C3)Cn1c-2c(C2CCCCC2)c2ccc(C(=O)NS(=O)(=O)NC3CC3)cc21 (stereo not shown) [drawing 68]			1 to 500	1 to 500	
